This note sets out measurements from patent US20080108611A1, “SUBSTITUTED THIENOPYRIMIDINE KINASE INHIBITORS” (priority 2006, published 2008).

T1 sequence (P00533 669-1210 limits assumed): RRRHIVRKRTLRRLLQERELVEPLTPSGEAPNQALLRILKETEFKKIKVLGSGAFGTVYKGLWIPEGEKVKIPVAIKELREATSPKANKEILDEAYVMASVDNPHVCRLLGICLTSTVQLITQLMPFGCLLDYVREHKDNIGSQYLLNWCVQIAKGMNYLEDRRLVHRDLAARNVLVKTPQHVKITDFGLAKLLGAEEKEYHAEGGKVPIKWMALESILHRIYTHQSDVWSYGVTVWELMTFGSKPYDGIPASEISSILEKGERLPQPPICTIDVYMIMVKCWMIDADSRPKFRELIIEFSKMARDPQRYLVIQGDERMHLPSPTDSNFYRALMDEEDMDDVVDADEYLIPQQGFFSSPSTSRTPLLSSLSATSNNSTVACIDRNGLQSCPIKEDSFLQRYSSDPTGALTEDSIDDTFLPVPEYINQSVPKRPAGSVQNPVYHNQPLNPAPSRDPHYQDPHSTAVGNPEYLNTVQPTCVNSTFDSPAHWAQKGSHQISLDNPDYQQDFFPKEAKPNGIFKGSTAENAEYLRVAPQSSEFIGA

The assay concerns the target T1, EGFR (Homo sapiens, UniProt P00533).
T1 construct: The intracellular portion of EGFR started at nucleotide 2189 (corresponding to amino acid 667) and ended at the termination codon; made in house; host or cells: Sf9 insect cells (baculovirus)
Description: EGFR Kinase Assay. Type of assay: biochemical. As to conditions: GST-EGFR intracellular portion, 5 μM ATP. The source says: The EGFR kinase used was a fusion of Glutathione-S-Transferase (GST) and a PCR amplified intracellular portion of EGFR (NM_005228). The intracellular portion of EGFR started at nucleotide 2189 (corresponding to amino acid 667) and ended at the termination codon. The portion was PCR amplified with primers that added the lambda attB sequences to each end, recombined into an entry vector, then into a GST destination vector (as described in Gateway Technologies Manual by Invitrogen Corporation, Carlsbad, Calif.).
The destination vector was recombined in the DH10BAC strain of bacteria to produce a bacmid. The bacmid was transfected into Sf 9 cells and the supernatant containing the baculovirus was collected. The GSTEGFR protein was purified using large cultures of Sf 9 cells infected with stock virus. After an appropriate period of time, the cells were collected and lysed. The GSTEGFR was then purified from the lysate on Glutathione-Sepharose columns (as described by Amersham Biosciences, Buckinghamshire, United Kingdom).
The EGFR substrate was prepared by biotinylating polyGluTyr (128 mg) (Sigma, St. Louis, Mo.) in a 1×PBS buffer incubated together with a 12-fold molar excess of Sulfo-NHS-LC-Biotin on ice for at least 2 hrs. The free biotin was separated from the biotinylated polyGluTyr on a gel filtration column.
A mixture of a 10× kinase buffer (500 mM Tris at pH 8.0, 100 mM Magnesium Chloride and 1 mM Sodium Vanadate), DTT (1 mM final from 500 mM stock), ATP (5 μM final from 10 mM stock), biotinylated polyGluTyr (10 μg/μL stock), γ-^33P ATP (10 μCi/μL stock) and water was added to each well (90 μL/well) of a Streptavidin Flashplate (Perkin Elmer, Wellesley, M A).
Test compound in 100% DMSO (2 μL) was added to the appropriate wells. Diluted GSTEGFR (1:300 dilution in 50 mM Tris at pH 8.0 and 0.1% bovine serum albumin) (10 μL) was added to the wells to initiate the reactions.
The plates were incubated at 30° C. for 1 hr with shaking. The reacted contents were removed and the plates were sequentially washed three times with a 1×PBS stop buffer (300 μL without Magnesium and Calcium) and 100 mM EDTA. After the final wash, the same stop buffer (200 μL) was added to the wells. The plates were then sealed and read on the TopCount scintillation counter.
Test compounds were assayed in triplicate at 16 concentrations at half-log dilutions starting at 200 uM. A maximum and minimum signal for the assay was determined on each plate. The percent inhibition of a test compound was calculated according to the formula
For a series of test concentrations, the IC50 was derived by graphing percent inhibition against the log of the concentrations tested for a given compound. For those compounds without an IC50, the percent inhibition results are shown at a test concentration of 2 μM.
The term IC50 denotes the concentration that inhibits the measured activity by half. Lower therefore signals greater potency. Molecule `COc1ccc(NC(=O)c2sc3ncnc(Nc4ccc(F)c(Cl)c4)c3c2N)cc1` [Cpd 1, 5-amino-4-(3-chloro-4-fluoro-phenylamino)-thieno[2,3-d]pyrimidine-6-carboxylic acid (4-methoxy-phenyl)-amide] showed an IC50 of 0.239 nM.
Molecule `Nc1c(C(=O)Nc2ccc(CN3CCOCC3)cc2)sc2ncnc(Nc3ccc(F)c(Cl)c3)c12` [Cpd 2, 5-amino-4-(3-chloro-4-fluoro-phenylamino)-thieno[2,3-d]pyrimidine-6-carboxylic acid (4-morpholin-4-ylmethyl-phenyl)-amide] yielded an IC50 of 0.086 nM.
For `COc1ccc(NC(=O)c2sc3ncnc(Nc4ccc(F)c(Cl)c4)c3c2N)cc1OC` [Cpd 3, 5-amino-4-(3-chloro-4-fluoro-phenylamino)-thieno[2,3-d]pyrimidine-6-carboxylic acid (3,4-dimethoxy-phenyl)-amide], the IC50 was 0.109 nM.
On to `Nc1c(C(=O)NCCN2CCOCC2)sc2ncnc(Nc3ccc(F)c(Cl)c3)c12` [Cpd 4, 5-amino-4-(3-chloro-4-fluoro-phenylamino)-thieno[2,3-d]pyrimidine-6-carboxylic acid (2-morpholin-4-yl-ethyl)-amide], for which the 50% inhibitory concentration (IC50) turned out to be 0.606 nM.
For `CN(C)CCCNS(=O)(=O)c1ccc(NC(=O)c2sc3ncnc(Nc4ccc(F)c(Cl)c4)c3c2N)cc1` [Cpd 5, 5-amino-4-(3-chloro-4-fluoro-phenylamino)-thieno[2,3-d]pyrimidine-6-carboxylic acid [4-(3-dimethylamino-propylsulfamoyl)-phenyl]-amide] the value was 0.043 nM; for `Nc1c(C(=O)Nc2ccc(Oc3ccccc3)cc2)sc2ncnc(Nc3ccc(F)c(Cl)c3)c12` [Cpd 6, 5-amino-4-(3-chloro-4-fluoro-phenylamino)-thieno[2,3-d]pyrimidine-6-carboxylic acid (4-phenoxy-phenyl)-amide], 0.741 nM.
For `Nc1c(C(=O)Nc2ccc(OC(F)(F)F)cc2)sc2ncnc(Nc3ccc(F)c(Cl)c3)c12` [Cpd 7, 5-amino-4-(3-chloro-4-fluoro-phenylamino)-thieno[2,3-d]pyrimidine-6-carboxylic acid (4-trifluoromethoxy-phenyl)-amide], 0.598 nM corresponded to half-maximal inhibition (IC50).
Regarding `CC(C)Oc1ccc(NC(=O)c2sc3ncnc(Nc4ccc(F)c(Cl)c4)c3c2N)cc1` [Cpd 8, 5-amino-4-(3-chloro-4-fluoro-phenylamino)-thieno[2,3-d]pyrimidine-6-carboxylic acid (4-isopropoxy-phenyl)-amide], the half-inhibitory concentration (IC50) was found to be 0.14 nM.
Consider `COc1ccc(NC(=O)c2sc3ncnc(Nc4ccc(F)c(Cl)c4)c3c2N)cn1` [Cpd 9, 5-amino-4-(3-chloro-4-fluoro-phenylamino)-thieno[2,3-d]pyrimidine-6-carboxylic acid (6-methoxy-pyridin-3-yl)-amide], for which half-maximal inhibition (IC50) required 0.147 nM.
For `Nc1c(C(=O)Nc2ccc(N3CCOCC3)cc2)sc2ncnc(Nc3ccc(F)c(Cl)c3)c12` [Cpd 10, 5-amino-4-(3-chloro-4-fluoro-phenylamino)-thieno[2,3-d]pyrimidine-6-carboxylic acid (4-morpholin-4-yl-phenyl)-amide] the value was 0.196 nM.
`COc1ccc(CNC(=O)c2sc3ncnc(Nc4ccc(F)c(Cl)c4)c3c2N)cc1OC` [Cpd 11, 5-amino-4-(3-chloro-4-fluoro-phenylamino)-thieno[2,3-d]pyrimidine-6-carboxylic acid 3,4-dimethoxy-benzylamide]: the IC50 was 0.177 nM.
Molecule `COc1ccc(CCNC(=O)c2sc3ncnc(Nc4ccc(F)c(Cl)c4)c3c2N)cc1OC` [Cpd 12, 5-amino-4-(3-chloro-4-fluoro-phenylamino)-thieno[2,3-d]pyrimidine-6-carboxylic acid [2-(3,4-dimethoxy-phenyl)-ethyl]-amide] registered a 50% inhibitory concentration (IC50) of 0.22 nM.
Next, `Nc1c(C(=O)Nc2ccc(CN3CCCCC3)cc2)sc2ncnc(Nc3ccc(F)c(Cl)c3)c12` [Cpd 13, 5-amino-4-(3-chloro-4-fluoro-phenylamino)-thieno[2,3-d]pyrimidine-6-carboxylic acid (4-piperidin-1-ylmethyl-phenyl)-amide]: 0.053 nM; `CN(C)Cc1ccc(NC(=O)c2sc3ncnc(Nc4ccc(F)c(Cl)c4)c3c2N)cc1` [Cpd 14, 5-amino-4-(3-chloro-4-fluoro-phenylamino)-thieno[2,3-d]pyrimidine-6-carboxylic acid (4-dimethylaminomethyl-phenyl)-amide]: 0.034 nM; `CN(CCc1ccc(NC(=O)c2sc3ncnc(Nc4ccc(F)c(Cl)c4)c3c2N)cc1)C1CCOCC1` [Cpd 15, 5-amino-4-(3-chloro-4-fluoro-phenylamino)-thieno[2,3-d]pyrimidine-6-carboxylic acid (4-{2-[methyl-(tetrahydro-pyran-4-yl)-amino]-ethyl}-phenyl)-amide]: 0.064 nM.
Molecule `CN(Cc1ccc(NC(=O)c2sc3ncnc(Nc4ccc(F)c(Cl)c4)c3c2N)cc1)C[C@H]1CCCO1` [Cpd 16, 5-amino-4-(3-chloro-4-fluoro-phenylamino)-thieno[2,3-d]pyrimidine-6-carboxylic acid [4-({methyl-[(2R)-tetrahydro-furan-2-ylmethyl]-amino}-methyl)-phenyl]-amide] showed a half-inhibitory concentration (IC50) of 0.035 nM.
Next, `CN(Cc1ccc(NC(=O)c2sc3ncnc(Nc4ccc(F)c(Cl)c4)c3c2N)cc1)C[C@@H]1CCCO1` [Cpd 17, 5-amino-4-(3-chloro-4-fluoro-phenylamino)-thieno[2,3-d]pyrimidine-6-carboxylic acid [4-({methyl-[(2S)-tetrahydro-furan-2-ylmethyl]-amino}-methyl)-phenyl]-amide]: 0.062 nM; `CN1CCN(Cc2ccc(NC(=O)c3sc4ncnc(Nc5ccc(F)c(Cl)c5)c4c3N)cc2)CC1` [Cpd 18, 5-amino-4-(3-chloro-4-fluoro-phenylamino)-thieno[2,3-d]pyrimidine-6-carboxylic acid [4-(4-methyl-piperazin-1-ylmethyl)-phenyl]-amide]: 0.067 nM.
